# Columns and labels:
# [1] = test system: vascularization by the Ehrlich asoites tumor cells crude extract; assay: vascularization-inhibitory effect, rabbit corneal assay; assay type: in vivo; settings: slow-releasing pellet in cornea
# Protocol: The vascularization-inhibitory effect of the compound of the present invention was examined by rabbit corneal assay reported by M. A. Gimbrone et al. (J. National Cancer Inst., 52, 412 (1974)). Namely, the center of the cornea of the eye of a rabbit was incised with a knife at a length of approximately 2 mm to thereby form a pouch. Then a slow-releasing pellet containing 100 μg of a crude extract of Ehrlich asoites tumor cells, which had been preliminarily prepared according to a method proposed by R. Langer et al. (Nature, 263, 797 ([…])), was introduced into the pouch. Further another slow-releasing pellet containing 0.3 to 81 μg of the compound of the present invention was introduced there into so as to contact these pellets with each other.
# acute toxicity on mice = settings: mouse, in vivo, ip
# [2] = test system: human colonic cancer cells (SW1116); assay: growth-inhibitory effect on human colonic cancer cells, dye exclusion method; assay type: cell-based; settings: SW 1116
# Protocol: The growth-inhibitory effects of the compound of the present invention on mouse colonic cancer cells (Colon 26) and human colonic cancer cells (SW1116) were examined. A 96-well plate was inoculated with mouse colonic cancer cells at a ratio of 1.5×10^3 cells per well, while another 96-well plate was inoculated with human colonic cancer cells at a ratio of 3.0×10^3 per well. These cells were incubated in an incubator at 37° C. under 5% CO2 for 24 hours. Then the compound of the present invention was added thereto at various concentrations. Cells in each well were counted by the dye exclusion method 65 hours and 96 hours after the addition to thereby evaluate the growth-inhibitory effect of the test compound on the mouse colonic cancer cells and that on the human colonic cancer cells.
# [3] = test system: human pulmonary cancer cells (PC-3); assay: growth-inhibitory effect on human pulmonary cancer cells, dye exclusion method; assay type: cell-based; settings: 72 h, three days
# Protocol: the growth-inhibitory effects of the compound of the present invention on mouse pulmonary cancer cells (LL) and human plumonary cancer cells (PC-3) were examined.
# A 96-well plate was inoculated with mouse polmonary cancer cells at a ratio of 8.0×10^2 cells per well, while another 96-well plate was inoculated with human pulmonary cancer cells at a ratio of 2.5×10^3 per well. These cells were incubated in an incubator at 37° C. under 5% CO2 for 24 hours. Then the compound of the present invention was added thereto at various concentrations. Cells in each well were counted by the dye exclusion method three days after the addition to thereby evaluate the growth-inhibitory effect of the test compound on the mouse pulmonary cancer cells (LL) and that on the human pulmonary cancer cells (PC-3).
# [4] = test system: human melanoma cells (G361); assay: growth-inhibitory effect on human melanoma cells, dye exclusion method; assay type: cell-based; settings: G-361, 72 hours
# Protocol: The growth-inhibitory effects of the compound of the present invention on mouse melanoma cells (B16) and human melanoma cells (G361) were examined. A 96-well plate was inoculated with mouse melanoma cells at a ratio of 1.5×10^3 cells per well, while another 96-well plate was inoculated with human melanoma cells at a ratio of 1.0×10^3 per well. These cells were incubated in an incubator at 37° C. under 5% CO2. Then the compound of the present invention was added thereto at various concentrations. Cells in each well were counted by the dye exclusion method 72 hours after the addition to thereby evaluate the growth-inhibitory effect of the test compound on the mouse melanoma cells and that on the human melanoma cells at various concentrations.
# [5] = test system: Sporobolomyces salmonicolor; assay: antifungal spectrum on Czapek Dox solution agar; assay type: cell-based; settings: read-out: Minimum inhibitory concentration
# Source text: (§1) the antifungal spectrum of the compound of the present invention was examined.
# Fusarium roseum f. sp. = assay: antifungal spectrum on Czapek Dox solution agar; assay type: cell-based; settings: Fusarium sambucinum, read-out: Minimum inhibitory concentration
# Source text: as §1
# Mucor javanicus = assay: antifungal spectrum on Czapek Dox solution agar; assay type: cell-based; settings: read-out: Minimum inhibitory concentration
# Source text: as §1
# Candida albicans = assay: antifungal spectrum on Czapek Dox solution agar; assay type: cell-based; settings: read-out: Minimum inhibitory concentration
# Source text: as §1
# Mycosphaerella melonis = assay: antifungal spectrum on Czapek Dox solution agar; assay type: cell-based; settings: read-out: Minimum inhibitory concentration
# Source text: as §1
# Saccharomyces cerevisiae = assay: antifungal spectrum on Czapek Dox solution agar; assay type: cell-based; settings: read-out: Minimum inhibitory concentration
# Source text: as §1
# Aspergillus oryzae = assay: antifungal spectrum on Czapek Dox solution agar; assay type: cell-based; settings: read-out: Minimum inhibitory concentration
# Source text: as §1
# [6] = test system: two-spoted spider mite acarids (a Kelthane-resistant species); assay: insecticidal action, mortality of two-spoted spider mite imagos; assay type: in vivo; settings: after 2 days
# Protocol: The insecticidal action of the compound of the present invention was examined by the following method.
# (1) An imago of two-spoted spider mite acarids (a Kelthane-resistant species) was used as a test vermin, and the mortality rate thereof was assaYed according to an ordinary method (described on page 327 of "NoYaku Seibutsu Kenteiho" edited by Toyoji Hosotsuji).
# Specifically, a solution of the compound of the present invention in acetone (0.1%) was added to 0.5 ml of an aqueous sucrose solution (1%) to have a predetermined concentration. Ten two-spoted spider mite acarids were released in a vessel (20-ml beaker), and the vessel was covered with a paraffin film. The agent solution prepared above was put on the paraffin film, and another praffin film was put thereon. The beaker was allowed to stand in a thermostatic chamber (20°±1° C.) for a predetermined period of time, and the life and death of the test vermin were investigated.
smiles,measurement,setting,value
CCC1/C=C/C=C/CC(C)C(O)C(C)(O)C(=O)C(C)C(O)C(C)C(=O)C(C)C(O)C(C)/C=C/C(=O)OC2C(C)C(CC1)OC1(CCC(C)C(CC(C)O)O1)C2CC (stereo not shown) [NK130119],retardation of vascularization compared with control group,[1]; 1 μg or above,significantly retarded till the fourth day
same,retardation of vascularization compared with control group,[1]; 2.7 ug or above,till the eighth day
same,LD50,acute toxicity on mice,0.05 mg/kg
same,inhibition at 0.0006 µg/mL,"[2]; Homo sapiens, SW1116, 0.0006 μg/ml, read-out: Growth-inhibitory ratio",2.29%
same,inhibition at 0.0024 µg/mL,"[2]; Homo sapiens, SW1116, 0.0024 μg/ml, read-out: Growth-inhibitory ratio",-1.4%
same,inhibition at 0.0098 µg/mL,"[2]; Homo sapiens, SW1116, 0.0098 μg/ml, read-out: Growth-inhibitory ratio",-0.24%
same,inhibition at 0.039 µg/mL,"[2]; Homo sapiens, SW1116, 0.039 μg/ml, read-out: Growth-inhibitory ratio",50.7%
same,inhibition at 0.156 µg/mL,"[2]; Homo sapiens, SW1116, 0.156 μg/ml, read-out: Growth-inhibitory ratio",50.3%
same,inhibition at 0.625 µg/mL,"[2]; Homo sapiens, SW1116, 0.625 μg/ml, read-out: Growth-inhibitory ratio",47.8%
same,inhibition at 2.5 µg/mL,"[2]; Homo sapiens, SW1116, 2.5 μg/ml, read-out: Growth-inhibitory ratio",47.2%
same,inhibition at 10 µg/mL,"[2]; Homo sapiens, SW1116, 10 μg/ml, read-out: Growth-inhibitory ratio",80.2%
same,IC50,"[2]; human colonic cancer cells (SW1116), cells counted 65 hours and 96 hours after addition",2.8 µg/mL
same,IC50,[3]; human pulmonary cancer cells (PC-3),2 µg/mL
same,inhibition at 0.0006 µg/mL,"[3]; Homo sapiens, PC-3, 0.0006 μg/ml, read-out: Growth-inhibitory ratio",0.8%
same,inhibition at 0.0024 µg/mL,"[3]; Homo sapiens, PC-3, 0.0024 μg/ml, read-out: Growth-inhibitory ratio",1.4%
same,inhibition at 0.0098 µg/mL,"[3]; Homo sapiens, PC-3, 0.0098 μg/ml, read-out: Growth-inhibitory ratio",6.2%
same,inhibition at 0.039 µg/mL,"[3]; Homo sapiens, PC-3, 0.039 μg/ml, read-out: Growth-inhibitory ratio",22.6%
same,inhibition at 0.156 µg/mL,"[3]; Homo sapiens, PC-3, 0.156 μg/ml, read-out: Growth-inhibitory ratio",21.3%
same,inhibition at 0.625 µg/mL,"[3]; Homo sapiens, PC-3, 0.625 μg/ml, read-out: Growth-inhibitory ratio",28%
same,inhibition at 2.5 µg/mL,"[3]; Homo sapiens, PC-3, 2.5 μg/ml, read-out: Growth-inhibitory ratio",54.3%
same,inhibition at 10 µg/mL,"[3]; Homo sapiens, PC-3, 10 μg/ml, read-out: Growth-inhibitory ratio",91.5%
same,IC50,[4]; human melanoma cells (G361),1.63 µg/mL
same,inhibition at 0.0006 µg/mL,"[4]; Homo sapiens, G361, 0.0006 μg/ml, read-out: Growth-inhibitory ratio",-2.01%
same,inhibition at 0.0024 µg/mL,"[4]; Homo sapiens, G361, 0.0024 μg/ml, read-out: Growth-inhibitory ratio",5.3%
same,inhibition at 0.0097 µg/mL,"[4]; Homo sapiens, G361, 0.0097 μg/ml, read-out: Growth-inhibitory ratio",10.8%
same,inhibition at 0.039 µg/mL,"[4]; Homo sapiens, G361, 0.039 μg/ml, read-out: Growth-inhibitory ratio",29.6%
same,inhibition at 0.156 µg/mL,"[4]; Homo sapiens, G361, 0.156 μg/ml, read-out: Growth-inhibitory ratio",33.9%
same,inhibition at 0.625 µg/mL,"[4]; Homo sapiens, G361, 0.625 μg/ml, read-out: Growth-inhibitory ratio",36%
same,inhibition at 2.5 µg/mL,"[4]; Homo sapiens, G361, 2.5 μg/ml, read-out: Growth-inhibitory ratio",56.2%
same,inhibition at 10 µg/mL,"[4]; Homo sapiens, G361, 10 μg/ml, read-out: Growth-inhibitory ratio",89.6%
same,MIC,[5],> 100 µg/mL
same,MIC,Fusarium roseum f. sp.,0.39 µg/mL
same,MIC,Mucor javanicus,> 100 µg/mL
same,MIC,Candida albicans,> 100 µg/mL
same,MIC,Mycosphaerella melonis,1.56 µg/mL
same,MIC,Saccharomyces cerevisiae,> 100 µg/mL
same,MIC,Aspergillus oryzae,1.56 µg/mL
same,"Mortality rate, imagos of two-spoted spider mite",[6]; 1 ppm,20%
same,"Mortality rate, imagos of two-spoted spider mite",[6]; 10 ppm,60%
same,"Mortality rate, imagos of two-spoted spider mite",[6]; 100 ppm,100%
